Measured values: patent publication US9586945B2, “Aminochromane, aminothiochromane and amino-1,2,3,4-tetrahydroquinoline derivatives, pharmaceutical compositions containing them, and their use in therapy” (AbbVie Deutschland GmbH & Co. KG, priority 2013, dated 2017)

Key:
[1] = Metabolic stability in human liver microsomes; format: in vitro ADME; conditions: 0.5 μM test substance, NADPH, 37° C., scaled microsomal clearance, examples marked * tested as fumarate salts
Method: Metabolic stability was determined as follows:
0.5 μM test substance was preincubated together with human liver microsomes (0.25 mg of microsomal protein/[…]) in 0.05 M potassium phosphate buffer of pH 7.4 in microtiter plates at 37° C. for 5 min. The reaction was started by adding NADPH (1.0 mM). After 0, 5, 10, 15, 20 and 30 min the reaction was stopped and cooled with twice the amount of quench solution consisting of acetonitrile/methanol 1:1, and containing 0.2 μM carbutamide. The samples were frozen until analyzed. The remaining concentration of undegraded test substance was determined by LC MSMS. The half-life (T1/2) was determined from the gradient of the signal of test substance/unit time plot, al-lowing to calculate the half-life of the test substance, assuming first order kinetics, from the de-crease in the concentration of the compound with time. The microsomal clearance (mClint) was calculated as follows: mClint=((ln(2)/t1/2)/Microsomal Protein Concentration (mg/ml))*1000, leading to the unit of uL/min/mg. The scaled clearance (mClin_scaled) was calculated as mCLint_scaled=m CLint*(Microsomal Yield (mg/kg BW))/1000000*60, leading to the units L/hr/kg. The Microsomal Yield is defined by the specifics of the used microsomes. Calculations were modified from references: Di, The Society for Biomolecular Screening, 2003, 453-462; Obach, DMD, 1999 vol 27. N 11, 1350-1359.

human GlyT1c transporter = human GlyT1c transporter (Homo sapiens (Human), UniProt P48067); test: Radioligand binding assay using recombinant CHO cell membranes expressing human GlyT1; conditions: examples marked * tested as fumarate salts, read-out: radioligand binding Kiapp
Chain of human GlyT1c transporter (P48067 whole entry): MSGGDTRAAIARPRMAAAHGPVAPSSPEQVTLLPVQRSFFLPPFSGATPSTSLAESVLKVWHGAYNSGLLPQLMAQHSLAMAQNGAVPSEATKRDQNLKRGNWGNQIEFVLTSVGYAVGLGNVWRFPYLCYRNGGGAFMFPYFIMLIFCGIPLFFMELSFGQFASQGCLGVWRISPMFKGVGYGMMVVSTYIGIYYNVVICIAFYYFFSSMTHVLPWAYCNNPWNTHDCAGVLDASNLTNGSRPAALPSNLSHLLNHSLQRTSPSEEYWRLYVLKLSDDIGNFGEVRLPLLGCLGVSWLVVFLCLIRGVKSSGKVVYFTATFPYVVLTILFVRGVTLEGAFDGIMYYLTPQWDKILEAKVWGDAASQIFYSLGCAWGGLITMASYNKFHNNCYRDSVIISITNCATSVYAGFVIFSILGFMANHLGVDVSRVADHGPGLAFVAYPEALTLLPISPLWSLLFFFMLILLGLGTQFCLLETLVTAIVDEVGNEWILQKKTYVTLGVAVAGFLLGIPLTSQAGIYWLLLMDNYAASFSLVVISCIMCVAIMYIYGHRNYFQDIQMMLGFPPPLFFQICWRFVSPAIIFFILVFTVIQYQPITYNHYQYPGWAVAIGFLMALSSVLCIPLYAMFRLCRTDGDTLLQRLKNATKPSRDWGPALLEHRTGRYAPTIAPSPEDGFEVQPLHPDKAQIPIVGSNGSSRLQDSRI

With `Cn1cnc(S(=O)(=O)NC2CN(c3ccc4c(c3)C(Cc3ccccc3)C(N3CCC3)CO4)C2)c1` (centres unmarked) [Example 1, N-[1-[3-(azetidin-1-yl)-4-benzyl-chroman-6-yl]azetidin-3-yl]-1-methyl-imidazole-4-sulfonamide] the “human mCl” value [1] was “≦5 L/h/Kg” and the Ki (human GlyT1c transporter) was at most 0.01 µM.
